Laboratory results taken from patent US9938316B2, “Selective inhibitors of α2 isoform of Na,K-ATPase and use thereof for reduction of intra-ocular pressure and as cardiotonic agents” (priority 2013, dated 2018).

Columns and labels:
[1] = target: T1, Na,K-ATPase α2β1 isoform complex (Homo sapiens, UniProt P50993); assay: biochemical; assay type: biochemical; parameters: made in house; host or cells: Pichia pastoris SMD1165; settings: Ki, nM ± SEM α2β1, Table 6
Method: (§1) Methods for transformation, culture of P. pastoris clones, protein expression of Na,K-ATPase human isoforms (α1β1, α2β1, α3β1), membrane preparation, solubilization of membranes in DDM, and purification on BD-Talon beads have been described in detail (6-9, 11, 25). In initial experiments the three purified isoform complexes (0.3-0.5 mg/ml) were eluted from the BD-Talon beads in a solution containing Imidazole 170 mM, NaCl 100 mM; Tricine.HCl 20 mM pH 7.4; C12E8, 0.1 mg/ml; SOPS 0.07 mg/ml cholesterol 0.01 mg/ml, glycerol 25%. In later experiments the isoforms complexes were reconstituted with purified FXYD1 on the BD-Talon beads together as described in detail in (10, 11) prior to elution of α1β1FXYD1, α2β1FXYD1 and α3β1FXYD1 complexes. The proteins were stored at −80° C. Protein concentration was determined with BCA (B9643 Sigma).
(§2) Inhibition of Na,K-ATPase activity of the detergent-soluble α1β1, α2β1, and α3β1 complexes by CG's was determined as described (6) using either the αβ or αβFXYD1 complexes. […] The K0.5K was estimated by varying K concentration in a medium containing a fixed total K+choline chloride of 60 mM, and constant NaCl of 140 mM. Curves were fitted to the Hill function v=Vmax*[S]^n/([S]^n+K^n), where S is the K concentration, n is the Hill coefficient and K^n is K0.5K. For comparison of different curves the ratio v/Vmax for each curve was calculated and replotted. In experiments to assess inhibition of Na,K-ATPase activity by cardiac glycosides of the present invention, the percent inhibition VCG/V0 was calculated and Ki values were obtained by fitting the data to the function VCG/V0=Ki/([CG]+Ki)+ c. Inhibition was estimated in 3-8 separate experiments and average Ki values ±SEM were calculated. Significance of differences between Kiα1 and Kiα2 was calculated by the unpaired Student's t-test (p values). […] P values <0.05 were considered significant.

[2] = target: T2, Na,K-ATPase α1β1 isoform complex (Homo sapiens, UniProt P05023); assay: biochemical; parameters: made in house; host or cells: Pichia pastoris SMD1165; settings: Ki, nM ± SEM α1β1, Table 6
Method: as §1, §2

[3] = test system: Na,K-ATPase α2β1 isoform complex; assay: biochemical; assay type: biochemical, human; settings: for Selectivity α1β1/α2/β1: ratio of Ki, Table 6; for Selectivity ratio Ki α1/α2 ± S.E.: Kiα1β1/Kiα2β1
Method: as §1, §2

[4] = test system: Na,K-ATPase α2β2 isoform complex; assay: biochemical; parameters: species or system human; settings: ratio of Ki, Table 6
From the text: (§3) Human β1, β2 and β3 were cloned into the pHIL-D2 expression vector containing the human α1 or α2. pHIL-D2 expression vectors containing porcine (p) α1, human (h) α1 or human α2 with Hisx10 tagged porcine β1 were previously generated (7, 9). Human β1 (Accession: P05026), human β2 (Accession: P14415) and human β3 (Accession: […]) cDNAs in pSD5 vector were a gift from K. Geering Univ. Lausanne Switzerland. The open reading frames and flanking regions of hβ1, hβ2 and hβ3 (in pSD5) were amplified separately by polymerase chain reaction (PCR) using synthetic primers containing BglII and SalI cleavage sites. Each one of the amplified fragments were digested with BglII and SalI and ligated to BglII and SalI treated plasmid pHIL-D2-(pα1/His10pβ1) to generate pHIL-D2 (pα1/His10hβ1or2or3). hβ1, hβ2 and hβ3 containing fragments were excised from pHIL-D2-(pα1/His10hβ1or2or3) and subcloned into pHIL-D2-(hα1/His10pβ1) or pHIL-D2-(hα2/His10pβ1) to produce pHIL-D2-(hα1/His10hβ1or2or3) and pHIL-D2-(hα2/His10hβ1or2or3). The newly created plasmids were analyzed for correct integration and correct sequence of the insert by restriction enzymatic digestions and sequencing. DNA of each construct was prepared in large quantities in E. coli XL-1 Blue for Pichia pastoris transformation.
as §2

[5] = target: T3, Na,K-ATPase α2β3 isoform complex (Homo sapiens, UniProt P50993); assay: biochemical
T3 construct: made in house; host or cells: Pichia pastoris SMD1165
From the text: as §3, §2

[6] = target: T4, Na,K-ATPase α2β2 isoform complex (Homo sapiens, UniProt P50993); assay: biochemical
T4 construct: made in house; host or cells: Pichia pastoris SMD1165
From the text: as §3, §2

[7] = test system: Na,K-ATPase α2β3 isoform complex; assay: biochemical; parameters: species or system human; settings: ratio of Ki, Table 6
From the text: as §3, §2

[8] = test system: intra-ocular pressure (IOP) of rabbits; assay: IB-MECA-induced ocular hypertension in rabbits; assay type: in vivo, New Zealand white rabbits; settings: single drop, 1 μM
Method: IB-MECA induces acute ocular hypertension by a different and well-defined mechanism. Namely, IB-MECA is a selective agonist of the A3-adenosine receptor, and rises aqueous humour inflow and IOP by activating Cl channels of the NPE cells (18, 19). […] FIG. 8A depicts the effects of DMe (0.1-1 mM) applied prior to the IB-MECA, and a similar result was obtained for DGlyN (not shown). FIG. 8B depicts effects of digoxigenin, DGlyN and DMe (1 mM) applied after the IB-MECA.
(§4) New Zealand white rabbits (3-3.5 kg) about 1 year old, of either sex, were housed individually in separate cages in animal room conditions on a reversed, 12-hour dark/light cycle. For the experiments the animals were transferred to rabbit restrainers in a quiet and calm atmosphere (FIG. 1). […] Animal care and treatment were subject to the approval of the institutional committee for animal experiments, Weizmann Institute IACUC permission (no 04270911-2).
(§5) IOP (mm Hg) of rabbits was measured using a calibrated Pneumatonometer (Model 30, Reichert technologies, FIG. 1). A local anesthetic Oxybuprocaine HCl (0.4%, 25 μl) was applied to each cornea about a minute before IOP measurements. Two baseline IOP readings were taken before topical administration of the CG (or PBS as control) and after half an hour (Zero time). […] At zero time one drop of 4AP (40 mg/ml, 30 μl) or IB-MECA (1 μM, 30 μl) was administered to both eyes of each rabbit IOP measurements were made at different times as indicated in each experiment. In the experiments for which the IOP was elevated for several hours, 4AP was added every […] or IB-MECA every 2 hours. […] In all cases the figures depict the average effect on IOP (i.e for four or six eyes) compared to control ±SEM. […] Significance of differences from the control was calculated by the unpaired Students t-test (p values), p values <0.05 were considered significant. Corneal thickness (μm) was measured using an ultrasonic pachymeter (Sonogage pachometer, Cleveland, USA), before and during the experiment with CG and 4AP treatments. The values represent averages of three independent measurements for each eye.

[9] = target: T2, Na,K-ATPase α1β1 isoform complex; assay: biochemical; settings: Ki ± S.E. α1, Table 2; α1β1
Method: as §1, §2

[10] = target: T1, Na,K-ATPase α2β1 isoform complex; assay: biochemical; assay type: biochemical; settings: Ki ± S.E. α2, Table 2; α2β1
Method: as §1, §2

[11] = test system: intra-ocular pressure (IOP) of rabbits; assay: 4-aminopyridine (4AP)-induced ocular hypertension in rabbits; assay type: in vivo, New Zealand white rabbits
Method: Intra-ocular pressure in rabbits was measured using of a “Reichert Model 30™ Pneumatonometer” after anesthetizing the cornea with local anesthetic.
Since the IOP reflects a balance of the inflow and outflow of aqueous humour, reduction of the increased 4AP-induced inflow of aqueous humour by cardiac glycosides should prevent the increase in IOP. Thus, the standard experimental design to test effects of cardiac glycosides involved topical application of the compounds (1 drop in each eye) 30 minutes prior to application of 4AP and measurement of IOP every 30 minutes over five hours. […] Each experiment was done three times, but the figures depict a representative experiment using a different rabbit for each concentration of the cardiac glycoside.
DGlyN or DMe (0.1 or 1 mM) were applied one hour after the first application of 4AP, which was added every two hours.
as §4, §5

SMILES | Ki [1] | Ki [2] | Selectivity α1β1/α2/β1 [3] | Selectivity α1β1/α2/β2 [4] | Ki [5] | Ki [6] | Selectivity α1β1/α2β3 [7] | Effect on IOP [8] | Ki [9] | Ki [10] | Time IOP is maintained at the low level ([11]; 1 mM, single drop, 4AP every two hours) | Selectivity ratio Ki α1/α2 ± S.E. [3] | Concentration required to fully prevent the rise in IOP ([11]; applied topically prior to 4AP)
CC1CN(C(C)C)CCC(OC2C(O)CC(OC3C(O)CC(OC4CCC5(C)C(CCC6C5CC(O)C5(C)C(C7=CC(=O)OC7)CCC65O)C4)OC3C)OC2C)O1 (stereo not drawn) [DIP] | 28.9 ± 1.7 nM | 149 ± 20.7 nM | 5.1 | 8.9 | 10.3 ± 1.8 nM | 16.7 ± 1.9 nM | 14.4 | – | – | – | – | – | –
CC1CN(C(C)(C)C)CCC(OC2C(O)CC(OC3C(O)CC(OC4CCC5(C)C(CCC6C5CC(O)C5(C)C(C7=CC(=O)OC7)CCC65O)C4)OC3C)OC2C)O1 (stereo not drawn) [DtB] | 21.6 ± 5.6 nM | 135 ± 12.1 nM | 6.2 | 7.3 | 16.3 ± 0.28 nM | 18.4 ± 1.1 nM | 8.2 | – | – | – | – | – | –
CNC(=O)[C@H]1O[C@@H](n2cnc3c(NCc4cccc(I)c4)ncnc32)[C@H](O)[C@@H]1O [IB-MECA, reference compound] | – | – | – | – | – | – | – | significant but transient increase in IOP | – | – | – | – | –
CCCN1CCC(OC2C(O)CC(OC3C(O)CC(OC4CCC5(C)C(CCC6C5CC(O)C5(C)C(C7=CC(=O)OC7)CCC65O)C4)OC3C)OC2C)OC(C)C1 (stereo not drawn) [DP] | 18.3 ± 1.68 nM | 87.7 ± 7.9 nM | 4.8 | 8.3 | 9.8 ± 1.1 nM | 10.5 ± 1.8 nM | 8.8 | – | – | – | – | – | –
C[C@]12CC[C@H](O)C[C@H]1CC[C@@H]1[C@@H]2C[C@@H](O)[C@]2(C)[C@@H](C3=CC(=O)OC3)CC[C@]12O [Digoxigenin, digoxigenin, reference compound] | – | – | – | – | – | – | – | – | 139 ± 17 nM | 130 ± 13.5 nM | about 2 hours | – | –
CC1CN(CC(F)(F)F)CCC(OC2C(O)CC(OC3C(O)CC(OC4CCC5(C)C(CCC6C5CC(O)C5(C)C(C7=CC(=O)OC7)CCC65O)C4)OC3C)OC2C)O1 (stereo not drawn) [DMeCF3] | 28.6 ± 0.9 nM | 119 ± 15 nM | 4.1 | 6.5 | 12.4 ± 1.5 nM | 18.1 ± 1.9 nM | 9.6 | – | 199 ± 33 nM | 44 ± 7 nM | – | 4.50 ± 1.0 | –
CC1CN(C[Si](C)(C)C)CCC(OC2C(O)CC(OC3C(O)CC(OC4CCC5(C)C(CCC6C5CC(O)C5(C)C(C7=CC(=O)OC7)CCC65O)C4)OC3C)OC2C)O1 (stereo not drawn) [DTMS] | 31.5 nM | 108 nM | 3.4 | 7.2 | 7.8 nM | 15 nM | 13.8 | – | – | – | – | – | –
CCN1CCC(OC2C(O)CC(OC3C(O)CC(OC4CCC5(C)C(CCC6C5CC(O)C5(C)C(C7=CC(=O)OC7)CCC65O)C4)OC3C)OC2C)OC(C)C1 (stereo not drawn) [DEt] | 23.2 ± 0.9 nM | 138 ± 12.6 nM | 5.9 | 8.3 | 14.4 ± 1.27 nM | 16.4 ± 1.6 nM | 9.5 | – | 53 ± 3.4 nM | 18.5 ± 4.9 nM | – | 2.88 ± 0.78 | –
CC(C)CN1CCC(OC2C(O)CC(OC3C(O)CC(OC4CCC5(C)C(CCC6C5CC(O)C5(C)C(C7=CC(=O)OC7)CCC65O)C4)OC3C)OC2C)OC(C)C1 (stereo not drawn) [DIB] | 20.6 ± 1.4 nM | 92 ± 8.9 nM | – | – | 5.8 nM | 10 ± 0.8 nM | – | – | – | – | – | – | > 30 µM
